Common to all, as to format: binding, human
For test [1], the system named is IgE of sera from soybean-sensitive patients. Put plainly: Peptide microarray, immune status of soybean-sensitive patients: IgE detection. To be noted: sera from 50 patients, diluted 1:50; positive = signal to noise ratio above 5. The source says: (§1) Epitope candidates were supplied externally (Neundorf, University of Cologne, Germany). The peptide is synthesised with the following structure: Ac-N-epitope sequence-C-Ebes-Lys(γ-N3)-amide (Ebes=amino-3,6-dioxaoctyl-succinamic acid). The peptide sequences were based on either the naïve soybean protein sequence (Pr) or the mimotope from phage display experiment (Ph). The peptide length varied between eight and nineteen amino acids. Glass slides were coated with Dibenzocyclooctyl (DBCO). The peptides were immobilized using different concentrations (81 ng/μl, 27 ng/μl or 9 ng/μl) on glymo-covered slides using click chemistry.
(§2) Each slide was blocked for 30 min with PBS containing 0.1% (v/v) Tween-20 and 1% (w/v) BSA, pH 7.4. For the incubation with sera cover slides (HybriWell™. 60 mm×21 mm×0.15) were used. Sera from 50 patients with differently intense prick reaction to soy milk were tested. The slides were incubated with 100 μl sera from the soybean-sensitive patients diluted 1:50 in blocking buffer overnight at 4° C. After two washes in washing buffer (PBS containing 0.1% (v/v) Tween-20, pH 7.4) the slides were shaken at 200 rpm for 60 min in a mouse-anti human IgE antibody (Abcam, Cambridge, UK, ab99834) diluted to 100 ng/ml or goat-anti human IgG antibody Cy5 (Abcam, Cambridge, UK, ab97172) diluted to 100 ng/ml in blocking buffer. After two further washes, bound IgG and IgE were detected by incubating the array for 60 min at room temperature with the secondary Cy5-labeled goat anti-mouse antibody (life technologies, Thermo Fisher Scientific, Waltham, Mass., USA, A10524) diluted to 400 ng/ml in blocking buffer. Fluorescence signals on the array were detected in a microarray reader (Geneprix 4200A) at 635 nm and the data were evaluated using GenePix® Pro 6 software to determine the signal intensity of each peptide spot. The software calculated the signal to noise ratio (SNR) for every spot. An overall threshold of 5 signal to noise ratio units was set, and signals above this threshold were assumed to indicate positive recognition by the patient sera.

In test [2] the test system is IgG of sera from soybean-sensitive patients. The experiment in a line: Peptide microarray, immune status of soybean-sensitive patients: IgG detection. The settings on record: sera from 50 patients, diluted 1:50; positive = signal to noise ratio above 5.
Text: as §1, §2

The test system of test [3] is antibodies (IgE and IgG) in sera of soybean-protein sensitive patients. The experiment in a line: Peptide microarray, recognition of peptides by patient sera (IgE and IgG, total). To be noted: sera from 50 patients.
Text: as §1, §2

Test [4] has as its system antibodies of serum from patients with soy allergy. The experiment in a line: Phage display affinity selection and panning (ENTE1 library), sequencing and statistical motif analysis. To be noted: for sequence count (lcount): 2013_S1_2. Panning; for all three epitopes (SEQ ID NO.: 17, 20, 15) recognized by the same patient: 23 patients; for epitope recognized by patients / two epitopes (SEQ ID NO.: 15, SEQ ID NO.: 17) recognized by the same patients: number of patients out of 23. The source says: Strong immunodominant allergic proteins, such as P34 thiol protease (Gly m Bd 30K), are known to induce allergic reactions, whereas other soybean proteins, although no potent inducers of a primary allergic response, can nevertheless trigger effector responses due to their binding by IgE. […] For example, only 65% of soybean sensitive individuals carry IgE recognizing P34 thiol protease (Gly m Bd 30K), which is considered one of the strongest allergenic soybean proteins (Yang et al., 2011). […] To identify many specific epitopes, i.e. amino acid sequences of soybean proteins, recognized by antibodies of sensitive patients, with high resolution down to the individual amino acids involved, the inventors applied a novel approach using a specific random phage library (EP 14 166 662.8). This phage library is generated using triplet codons with specific limitations, such that most amino acids are regularly represented throughout the entire library. In consequence, the library covers an unusually broad range of sequence variability and allows particular reliable statistical analysis. The library was contacted with serum samples derived from a biobank of 50 different soybean protein sensitive patients. After phage selection, the amino acid sequences that were bound by the patients' antibodies (anti-[allergen antibody] amino acid sequence) were identified by next generation sequencing and the results statistically analyzed. To confirm the allergy relevance of the identified amino acid sequences, their reactivity with patient IgE was determined by peptide arrays. Thereby, the inventors identified more than 300 potentially allergenic epitopes from different soybean proteins. The identified epitopes could be assigned to a total of 23 soybean proteins (Table 1) including P34 thiol protease (Gly m Bd 30K), β-conglycinin (Gly m Bd60 K) and Gly m Bd 28K, which are considered major soybean allergenic proteins (Yang et al., 2011).
24 μg of serum protein from patients with soy allergy were diluted in 2.5 ml PBS and coated in protein binding Immuno™ Tubes with Maxisorp™ for 1 h at 4° C. at 18 rpm (negative control: PBS). The coated tubes were washed with 2.5 ml blocking buffer (5% NFDM/1×PBS) and incubated with 4 ml blocking buffer at 4° C. for at least 15 min (18 rpm). The tubes were washed three times with 4 ml wash buffer I (1×PBS). 1 ml blocking buffer containing 30 μg of non-allergic serum protein and the phage library ENTE1 was added to each tube. The tubes were incubated for 2 h at 4° C. (18 rpm). After incubation, the tubes were washed 5 times with 1 ml 0.1% Tween/1×PBS and subsequently with 0.5% Tween/1×PBS. Then the bound phages were eluted using 1 ml of elution buffer (0.1 M Glycin.HCl pH 2.2). The tubes were incubated 5 min and vortexed several times. The eluate was immediately neutralized with 200 μl neutralization buffer (1 M Tris.HCl pH 8.2). In the first selection round 4×10^11 cfu of the ENTE1-library were used per tube. In the second selection round 1000×the recovered phages were inserted.
TG1 (λ) cells were grown in 250 ml baffled culture flasks in 10 ml dYT at 37° C. until they reached an OD600 about 0.5-1.0. The cells were incubated with eluted phage for 20 min at 37° C. with 100 rpm agitation. After incubation, the solution was immediately poured on dYT-agar plates (25×25 cm) containing 200 μg/ml ampicillin and incubated overnight at 30° C.
After overnight incubation the colonies were resuspended in 25 ml dYT containing 1×10^10 cfu/ml M13K07. The cells were diluted in 25 ml dYT containing 500 μg/ml ampicillin and 1×10^10 cfu/ml M13K07 using a 250 ml baffled culture flasks to obtain a cell density of OD600 0.5. The cells were incubated for 1 h at 37° C. with 180 rpm agitation. Afterwards the culture was growing about 13 h at 30° C. with 180 rpm agitation. […]

Ends that are not written are not given here.

As for QDQEEDEEDE (peptide P20) [104], the “Number of IgE-positive sera” value in test [1] was 5. Besides, the “Number of IgG-positive sera” value in test [2] is reported as 2. The “total (IgE- and IgG-positive sera)” value in test [3] came to 7.

Take “GEIMCWREVVTQHQQHA (glycine max) [SEQ ID NO.: 707]”: the “sequence count (lcount)” value in test [4] stood at 122.

As to DEGEQPRPFPFPRPR (peptide P7) [54], the “Number of IgE-positive sera” value in test [1] came to 2. In test [2], the “Number of IgG-positive sera” value was 2. In test [3], the “total (IgE- and IgG-positive sera)” value amounted to 4.

Regarding GYNPCRQEEDEELHHKC (peptide P19) [104], in test [1], the “Number of IgE-positive sera” value worked out at 9. Besides, the “Number of IgG-positive sera” value in test [2] amounted to 6. In addition, in test [3], the “total (IgE- and IgG-positive sera)” value was found to be 15.

Regarding HIQEEECEGDL (peptide P8) [50], the “Number of IgE-positive sera” value in test [1] was 2. Also, the “Number of IgG-positive sera” value in test [2] came to 2. Besides, in test [3], the “total (IgE- and IgG-positive sera)” value worked out at 4.

For the substance KVLFSREEGQQQ (peptide P6) [35], the “Number of IgE-positive sera” value in test [1] is 21. Moreover, in test [2], the “Number of IgG-positive sera” value was determined as 9. Also, the “total (IgE- and IgG-positive sera)” value in test [3] is 31.

Regarding EVSFASQVLIY (peptide P3) [94], the “Number of IgE-positive sera” value in test [1] amounted to 6. The “Number of IgG-positive sera” value in test [2] worked out at 3. Further, the “total (IgE- and IgG-positive sera)” value in test [3] is 9.

With TEKYQQNSSG (peptide P11) [127], the “Number of IgE-positive sera” value in test [1] is given as 2. Moreover, in test [2], the “Number of IgG-positive sera” value came to 3. In addition, in test [3], the “total (IgE- and IgG-positive sera)” value worked out at 5.

Regarding RNQACHA (glycine max) [SEQ ID NO.: 17], in test [4], the “all three epitopes (SEQ ID NO.: 17, 20, 15) recognized by the same patient” value was “one”; the “epitope recognized by patients” value was 15/23; the “two epitopes (SEQ ID NO.: 15, SEQ ID NO.: 17) recognized by the same patients” value is 5/23.

For RRFYLAGNQEQEFL (peptide P15) [126], the “Number of IgE-positive sera” value in test [1] is given as 3. The “Number of IgG-positive sera” value in test [2] came to 2. Also, the “total (IgE- and IgG-positive sera)” value in test [3] was 6.

HVVEQEFLD (peptide P14) [126]: the “Number of IgE-positive sera” value in test [1] was 23. For the same substance, in test [2], the “Number of IgG-positive sera” value came to 5. Moreover, the “total (IgE- and IgG-positive sera)” value in test [3] stood at 28.

With HAANVVGNKESQREAR [Peptide P18], the “Number of IgE-positive sera” value in test [1] is given as 8. In addition, the “Number of IgG-positive sera” value in test [2] is listed as 1. The “total (IgE- and IgG-positive sera)” value in test [3] is reported as 9.

For FDQKESQHFS (peptide P17) [345], the “Number of IgE-positive sera” value in test [1] amounted to 0. In test [2], the “Number of IgG-positive sera” value is listed as 1. For the same substance, the “total (IgE- and IgG-positive sera)” value in test [3] is recorded as 2.

With VEEEEECEEGQI (peptide P9) [50], in test [1], the “Number of IgE-positive sera” value turned out to be 32. Also, in test [2], the “Number of IgG-positive sera” value came out at 17. For the same substance, in test [3], the “total (IgE- and IgG-positive sera)” value is 50.

For the substance QHQQ, the “motive count, first panning” value in test [4] (Serum 1, 1. Panning round) is 407 counts. For the same substance, the “motive count, second panning” value in test [4] (Serum 1, 2. Panning round) is recorded as 825 counts.

Consider EIPRPR (glycine max) [SEQ ID NO.: 20], for which, in test [4], the “all three epitopes (SEQ ID NO.: 17, 20, 15) recognized by the same patient” value is given as “one” and the “epitope recognized by patients” value was 3/23.

As for SQSHGFHGLCNRDHNCA (peptide P2) [100], the “Number of IgE-positive sera” value in test [1] is recorded as 7. The “Number of IgG-positive sera” value in test [2] came out at 1. Further, the “total (IgE- and IgG-positive sera)” value in test [3] is 8.

As for EFLKYQQEQG (peptide P12) [127], in test [1], the “Number of IgE-positive sera” value is reported as 12. Moreover, in test [2], the “Number of IgG-positive sera” value worked out at 12. Further, the “total (IgE- and IgG-positive sera)” value in test [3] was 24.

Turning to SDKYQEEFQPR (peptide P10) [127], the “Number of IgE-positive sera” value in test [1] is given as 10. Besides, the “Number of IgG-positive sera” value in test [2] is listed as 1. In addition, the “total (IgE- and IgG-positive sera)” value in test [3] was 12.

In the case of GVYNSQVDDEEEQNQRD (peptide P13) [159], the “Number of IgE-positive sera” value in test [1] was found to be 7. Moreover, the “Number of IgG-positive sera” value in test [2] was determined as 1. For the same substance, the “total (IgE- and IgG-positive sera)” value in test [3] is reported as 8.

For the substance SHHDQPRQHA (peptide P4) [28], the “Number of IgE-positive sera” value in test [1] is recorded as 12. Besides, the “Number of IgG-positive sera” value in test [2] is 6. Further, the “total (IgE- and IgG-positive sera)” value in test [3] is recorded as 18.

Turning to “GFNLCNRDRPAP (Ac-GFNLCNRDRPAP; not fully specified (C-terminus); also: Ebes linker, place not given here, Lys(azide), place not given here) [Peptide P1, 100]”, the “Number of IgE-positive sera” value in test [1] came to 4. Further, in test [2], the “Number of IgG-positive sera” value came out at 4. In test [3], the “total (IgE- and IgG-positive sera)” value is listed as 8.

On to HITFSREEGSI (peptide P5) [35], for which the “Number of IgE-positive sera” value in test [1] is reported as 12. In addition, the “Number of IgG-positive sera” value in test [2] is 2. Besides, the “total (IgE- and IgG-positive sera)” value in test [3] amounted to 14.

With NSERD (glycine max) [SEQ ID NO.: 15], in test [4], the “all three epitopes (SEQ ID NO.: 17, 20, 15) recognized by the same patient” value is given as “one”; the “epitope recognized by patients” value is recorded as 7/23; the “two epitopes (SEQ ID NO.: 15, SEQ ID NO.: 17) recognized by the same patients” value is 5/23.

As to ISQQDRHRI (peptide P16) [154], the “Number of IgE-positive sera” value in test [1] is 28. Besides, the “Number of IgG-positive sera” value in test [2] came to 13. Besides, the “total (IgE- and IgG-positive sera)” value in test [3] is given as 42.

On to “GIEPCSKYSQHQQHVQN (glycine max) [SEQ ID NO.: 706]”, for which, in test [4], the “sequence count (lcount)” value is 250.

Values taken from patent US20180340933A1, “Soybean Allergy Related Epitopes” (Fraunhofer-Gesellschaft zur Foerderung der angewandten …, priority 2015, published 2018).
